Patent publication US8143447B2, “Treatment of cancer” (BiPar Sciences, Inc., priority 2006, dated 2012)
Entries after “also recorded” stand apart in the source; their conditions may differ.

Tests used:
[1] = BA metabolite identification by LC/MS/MS from canine plasma; type: in vivo, dog; settings: canine plasma after BA administration; equivalents measured using BSI-201 in the 1 μg/ml spike sample as reference standard
Description: (§1) Plasma samples were obtained from dog, rat and mouse studies, in which animals were administered 4-iodo-3-nitrobenzamide (BA). Plasma and tumor samples were prepared for HPLC injection by precipitating plasma (50 μl) with 3× volumes (150 μl) of acetonitrile. Tissue samples were prepared for HPLC injection by adding 1 μl of acetonitrile per mg of tissue, then homogenizing with an electric homogenizer. Following centrifugation, 150 μl of each supernatant was evaporated to dryness, reconstituted in 50 μl of 0.2% formic acid in water and analyzed by chromatography and mass spectrometry techniques (LC/MS/MS conditions). LC/MS/MS conditions are: HPLC (Shimadzu VP System); Mobile Phase: 0.2% formic acid in water (A) and 0.18% formic acid in methanol (B); Column: 1×50 mm Thermo BetaBasic C18 column; Injection volume: 25 μL; Gradient: 0-60% B in 30 minutes; Flow Rate: 100 μL/min; Mass Spectrometer: Applied Biosystems/MDS SCIEX Q-STAR; Interface: IonSpray split at 1/10; Parent Ion Scan: TOF Positive from 200-900 amu; Product Ion Scan: TOF Product Ion from 60-900 amu of most intense Ion in Parent Ion Scan; TOF calibration: Externally calibrated using Renin Substrate. Results of metabolite identification from dog and mouse plasma are depicted in Tables 1-3, as follows: […]

[2] = BA metabolite identification by LC/MS/MS from murine plasma; type: in vivo, mouse; settings: murine plasma after BA administration; equivalents measured using BSI-201 in the 1 μg/ml spike sample as reference standard
Description: as §1

adult tumor cell lines = settings: a number of adult tumor cell lines; cited from earlier work
[3] = tested on: established adult tumor lines s.c. implanted in nude mice; settings: administered p.o.; cited from earlier work
[4] = BA metabolite identification by LC/MS/MS from canine plasma and red blood cells; type: in vivo, dog; settings: equivalents by 270 nm UV peak area of BSI-201 in the 5 μg/ml spike sample
Description: as §1

HTC116 cells = test: Cell-cycle analysis (DNA content, flow cytometry); type: cell-based; settings: treated for 19 hours
Description: HCT116 and Hela cells were obtained from ATCC. For DNA content analysis, 2×10^5 cells were washed twice with PBS and fixed in 70% ethanol. Cells were treated with 100 units/mL RNase A for 20 minutes at 37° C., resuspended in cold PBS containing Alexa Fluor® 405 fluorescent stain (Invitrogen) according to the manufacturer's protocol. Cells were analyzed by flow cytometry. FIG. 1 illustrates (FACS dot plots and histograms) cell-cycle analysis in HTC116 cells treated with PARP-1 inhibitor (4-iodo-3-nitrobenzamide or “BA”) for 19 hours.

KB 3-1 cells = test: Colony-forming assay, KB 3-1 cells; type: cell-based, human; settings: KB 3-1 (MDR1 normal) cells, 0-100 μM, 14 days
Source text: (§2) KB-V1 is a vinblastine resistant clone of KB-3-1 human carcinoma cell line (Fojo, A. T., J Whang-Peng, M. M. Gottesman, and I. Pastan. 1985. Amplification of DNA sequences in human multidrugresistant KB carcinoma cells. Proc. Natl. Acad. Sci. USA 82:7661-7665., Shen, D.-W., C. Cardarelli, J lwang, M. Cornwell, N. Richert, S. Ishii, I. Pastan, and M. M. Gottesman. 1986. Multiple drug-resistant human KB carcinoma cells independently selected for high-level resistance to colchicine, Adriamycin, or vinblastine show changes in expression of specific proteins. J. Biol. Chem. 261:7762-7770). Cells were propagated in Eagle minimal essential medium with 10% fetal bovine serum.
(§3) Cells were trypsinized, counted, and diluted to a final concentration of 10^6 cells/ml. Colony-forming assays were performed by plating an appropriate number of cells into culture dishes in triplicates and treated with 0-100 μM of a compound. After 14 days, cells were fixed and stained with 1% crystal violet, and colonies were counted.

KB V-1 cells = test: Colony-forming assay, KB V-1 cells (MDR1 overexpressing); type: cell-based, human; settings: KB V-1 (MDR1 overexpressing, vinblastine resistant) cells, 0-100 μM, 14 days
Source text: as §2, §3

| SMILES | Approximate [1] | Approximate [2] | IC50 of tumor cell growth inhibition (adult tumor cell lines) | growth of established adult tumor lines [3] | toxicities [3] | Approximate μg/ml Plasma ([4]; canine plasma) | Approximate μg/ml RBC ([4]; canine red blood cells) | S phase cell cycle (HTC116 cells; compared to control) | number of cells in the G1 phase (HTC116 cells; control 18.6%) | number of cell colonies / cell death (KB 3-1 cells) | number of cell colonies / cell death (KB V-1 cells) |
| --- | --- | --- | --- | --- | --- | --- | --- | --- | --- | --- | --- |
| NC(=O)c1ccc(I)c(O)c1 [M4 (263 m/z)] | ~12 ng/mL | ~56 ng/mL |  |  |  |  |  |  |  |  |  |
| Nc1ccccc1NC(=O)c1ccc(CNC(=O)OCc2cccnc2)cc1 [MS-27-275] |  |  | submicromolar range | inhibited the growth | minimal toxicities |  |  |  |  |  |  |
| NC(=O)c1ccc(I)c([N+](=O)[O-])c1 [BA, 4-iodo-3-nitrobenzamide] | ~1.9 ng/mL | ~3.7 ng/mL |  |  |  | ~2.1 µg/mL | ~1.6 µg/mL | decrease | 48.6% | dose-dependent cell death; also recorded: reduces the number of cell colonies in a dose-dependant manner | dose-dependent cell death; also recorded: reduces the number of cell colonies in a dose-dependant manner |
